Laboratory results reported in patent publication US6610890B1, “Aldose reductase inhibitors and pharmaceutical compositions” (O.N.C.E.-(Organizacion Nacional De Cicgos), priority 1998, dated 2003).
Like-named read-outs stand apart in the source and are kept apart here.

Experiments:
[1] = target: T1, Human recombinant aldose reductase (Homo sapiens, UniProt P15121); experiment: Inhibition of human recombinant aldose reductase (NADPH disappearance at 340 nm); format: biochemical
T1 construct: made in house; host or cells: Sf9 insect cells (Spodoptera frugiperda) infected with recombinant baculovirus AcAR
Procedure: Human recombinant aldose reductase was obtained and purified as previously described^21 with slight modifications. Briefly, Sf9 insect cells (Spodoplera frugiperda, from Pharmingen) were cultured in Grace's medium (Gibco) at 27° C. Then, cultures were infected with the purified recombinant baculovirus AcAR^22 that was kindly provided by Dr. C. Nishimura (National Children's Medical Research Center, Tokyo, Japan). The enzyme released into the culture medium was purified by affinity chromatography (Matrex Gel Orange A, Amicon). This Aldose Reductase was kept at −20° C. in 50 mM sodium phosphate, pH 7.0, 5 mM dithiotreitol and 50% glycerol.
Recombinant Aldose Reductase activity was determined according to the method previously described^21. The assay was carried out in a 96-well microtiter plate, at 37° C. in 100 mM sodium phosphate buffer, pH 6.2, 400 mM (NH4)2SO4, 0.1 mM NADPH and 5 mU/ml recombinant aldose reductase (1 mU of activity was defined as a change in absorbance of 0.012 units per minute). The reaction was initiated by addition of 10 mM glyceraldehyde and the enzymatic activity measured as the NADPH disappearance at 340 nm in a plate reader (MR-5000, Dynatech). Compounds were dissolved in DMSO (1% final concentration).

[2] = system: cells from rabbit cornea (ATCC CCL 60); experiment: Inhibition of intracellular accumulation of sorbitol in rabbit cornea cells; format: cell-based; conditions: Oryctolagus cuniculus, read-out: INHIBITION, IC50 Sorbitol Accumulation
Procedure: For this assay, cells from rabbit cornea (ATCC CCL 60) were used as previously described^23. In summary, 10×10^6 cells were incubated in 2.5 ml of Minimum Essential Medium (JRH Biosciences), 0.5% foetal calf serum and 50 mM glucose for 16 h at 37° C. in presence of 5% CO2. Compounds under study were added in DMSO whose final concentration was 1%. The sorbitol accumulated in the cells was extracted by lysis with 8% perchloric acid and neutralised with 2N KOH^24. Sorbitol quantitation was carried out using a calorimetric test (D-Sorbitol/Xylitol, Boehringer Mannheim).

[3] = recombinant enzyme, 37° C., pH 6.2, 10 mM glyceraldehyde, 0.1 mM NADPH, read-out: INHIBITION, IC50 Aldose Reductase
[4] = rabbit cornea cells, 50 mM glucose, 16 h at 37° C.

Row | SMILES | melting point [°C] | IC50 [1, 3] [nM] | IC50 [2, 4] [nM] | IC50 [1] [nM] | IC50 ([2]; 16 h) [nM]
1 | Oc1c(Oc2cc(Br)c(Br)c(Br)c2O)cc(Br)c(Br)c1Br [A-I, 3,3′,4,4′,5,5′-hexabromo-2,2′-dihydroxy-oxydiphenyl] | 188 to 190 | 4000 | 1000 | – | –
2 | Oc1c(Br)cc(Oc2cc(Br)c(Br)c(Br)c2O)c(O)c1Br [A-II, 3,3′,4′,5,5′-pentabromo-2,2′,4-trihydroxy-oxydiphenyl] | 207 to 209 | – | 8000 | 2000 | –
3 | Oc1c(Oc2cc(Cl)c(Cl)c(Cl)c2O)cc(Cl)c(Cl)c1Cl [A-III, 3,3′,4,4′,5,5′-Hexachloro-2,2′-dihydroxy-oxydiphenyl] | – | – | 240 | 5000 | –
4 | O=C(c1cc(Br)cc(Br)c1O)c1cc(Br)cc(Br)c1O [A-IV, 3,3′,5,5′-tetrabromo-2,2′-dihydroxybenzophenone] | – | 4000 | 5000 | – | –
5 | Oc1c(Br)c(Br)c(-c2c(Br)c(Br)c(O)c(Br)c2Br)c(Br)c1Br [A-V, 2,2′,3,3′,5,5′,6,6′-Octabromo-4,4′-biphenol] | 282 | 1000 | > 12000 | – | –
6 | Oc1c(Cl)c(Cl)c(-c2c(Cl)c(Cl)c(O)c(Cl)c2Cl)c(Cl)c1Cl [A-VI, 2,2′,3,3′,5,5′,6,6′-Octachloro-4,4′-biphenol] | 94 to 96 | 11000 | 220 | – | –
7 | Oc1c(F)c(F)c(-c2c(F)c(F)c(O)c(F)c2F)c(F)c1F [A-VII, 2,2′,3,3′,5,5′,6,6′-Octafluoro-4,4′-biphenol hydrate] | – | 220 | – | – | 420
